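Cells were grown in 96-well plates and exposed to each compound for 48 hours at five concentrations; endpoints were interpolated linearly between bracketing concentrations, or set to the highest concentration if not reached. GI50 marks 50% less growth. At the TGI there is no net growth.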
Experiments:
Test in all cases: growth of human tumour cells (NCI), 48 h
[1] = test system: M14 melanoma
[2] = test system: OVCAR-3 ovarian
[3] = test system: UO-31 renal
[4] = test system: SNB-75 CNS
[5] = test system: OVCAR-5 ovarian
[6] = test system: UACC-62 melanoma
[7] = test system: LOX IMVI melanoma
[8] = test system: BT-549 breast
[9] = test system: MCF7 breast
[10] = test system: DU-145 prostate
[11] = test system: HCT-15 colon
[12] = test system: MALME-3M melanoma
[13] = test system: EKVX NSCLC
[14] = test system: SW-620 colon
[15] = test system: OVCAR-4 ovarian
[16] = test system: ACHN renal
[17] = test system: NCI-H460 lung
[18] = test system: SK-MEL-5 melanoma
[19] = test system: PC-3 prostate
[20] = test system: K-562 leukemia
[21] = test system: HOP-62 NSCLC
[22] = test system: HCT-116 colon
[23] = test system: OVCAR-8 ovarian
[24] = test system: MDA-MB-435
[25] = test system: SF-295 CNS
[26] = test system: NCI-H522 lung
[27] = test system: MOLT-4 leukemia
[28] = test system: MDA-MB-231 breast
[29] = test system: TK-10 renal
[30] = test system: IGROV1 ovarian
[31] = test system: CAKI-1 renal
[32] = test system: SK-MEL-28 melanoma
[33] = test system: HT29 colon
[34] = test system: SN12C renal
[35] = test system: SNB-19 CNS
[36] = test system: SR leukemia
[37] = test system: SK-MEL-2 melanoma
[38] = test system: UACC-257 melanoma
[39] = test system: HL-60(TB) leukemia
[40] = test system: CCRF-CEM leukemia
[41] = test system: A549 NSCLC
[42] = test system: SF-268 CNS
[43] = test system: HS 578T breast
[44] = test system: HOP-92 NSCLC
[45] = test system: SF-539 CNS
[46] = test system: SK-OV-3 ovarian
[47] = test system: RXF 393 renal
[48] = test system: RPMI-8226 leukemia
[49] = test system: HCC-2998 colon
[50] = test system: T-47D breast
[51] = test system: NCI/ADR-RES ovarian
[52] = test system: KM12 colon
[53] = test system: 786-0 renal
[54] = test system: COLO 205 colon
[55] = test system: A498 renal
[56] = test system: NCI-H226 lung
[57] = test system: U251 CNS

For `C/C(=C(/c1ccc(O)cc1)c1ccc(OCCN2CCCC2)cc1)c1ccc(Cl)cc1`, the GI50 [1] was 1.69 µM, the TGI [1] was 3.23 µM and the GI50 [2] was 3.05 µM. For the same molecule, the TGI [2] was 11.8 µM, the GI50 [3] was 2.51 µM and the TGI [3] was 11.4 µM. The GI50 [4] was 3.06 µM, the TGI [4] was 16.6 µM and the GI50 [5] was 6.26 µM. For the same molecule, the TGI [5] was 18.8 µM, the GI50 [6] was 2.04 µM and the TGI [6] was 4.57 µM. For the same molecule, the GI50 [7] was 1.71 µM, the TGI [7] was 3.17 µM and the GI50 [8] was 8.98 µM. It also gave a TGI [8] of 21.1 µM, a GI50 [9] of 0.0364 µM and a TGI [9] of 3.26 µM. It also gave a GI50 [10] of 4.54 µM, a TGI [10] of 15.7 µM and a GI50 [11] of 1.99 µM. It also gave a TGI [11] of 4.62 µM, a GI50 [12] of 1.64 µM and a TGI [12] of 3.11 µM. It also gave a GI50 [13] of 5.84 µM, a TGI [13] of 18.7 µM and a GI50 [14] of 1.69 µM. It also gave a TGI [14] of 3.24 µM, a GI50 [15] of 4.78 µM and a TGI [15] of 17.2 µM. The GI50 [16] was 3.35 µM, the TGI [16] was 11.9 µM and the GI50 [17] was 1.8 µM. For the same molecule, the TGI [17] was 3.33 µM, the GI50 [18] was 1.78 µM and the TGI [18] was 3.23 µM. For the same molecule, the GI50 [19] was 2.94 µM, the TGI [19] was 10.8 µM and the GI50 [20] was 1.64 µM. It also gave a TGI [20] of 3.94 µM, a GI50 [21] of 3.99 µM and a TGI [21] of 15 µM. For the same molecule, the GI50 [22] was 1.63 µM, the TGI [22] was 3.21 µM and the GI50 [23] was 2.82 µM. The TGI [23] was 8.04 µM, the GI50 [24] was 1.72 µM and the TGI [24] was 3.21 µM. For the same molecule, the GI50 [25] was 2.16 µM, the TGI [25] was 4.77 µM and the GI50 [26] was 1.83 µM. The TGI [26] was 4.11 µM, the GI50 [27] was 2.52 µM and the TGI [27] was 6.02 µM. For the same molecule, the GI50 [28] was 3.52 µM, the TGI [28] was 13.1 µM and the GI50 [29] was 13.6 µM. It also gave a TGI [29] of 27.3 µM, a GI50 [30] of 4.62 µM and a TGI [30] of 17.5 µM. It also gave a GI50 [31] of 2.07 µM, a TGI [31] of 6.39 µM and a GI50 [32] of 1.75 µM. For the same molecule, the TGI [32] was 3.21 µM, the GI50 [33] was 1.73 µM and the TGI [33] was 3.41 µM. It also gave a GI50 [34] of 5.21 µM, a TGI [34] of 18.2 µM and a GI50 [35] of 3.85 µM. It also gave a TGI [35] of 13.8 µM, a GI50 [36] of 1.81 µM and a TGI [36] of 4.71 µM. For the same molecule, the GI50 [37] was 7.37 µM, the TGI [37] was 20.5 µM and the GI50 [38] was 1.78 µM. For the same molecule, the TGI [38] was 3.55 µM, the GI50 [39] was 2.09 µM and the TGI [39] was 4.11 µM. For the same molecule, the GI50 [40] was 2.41 µM, the TGI [40] was 7.38 µM and the GI50 [41] was 7.58 µM. The TGI [41] was 20.5 µM, the GI50 [42] was 4.78 µM and the TGI [42] was 20 µM. The GI50 [43] was 2.56 µM, the TGI [43] was 8.36 µM and the GI50 [44] was 2.38 µM. For the same molecule, the TGI [44] was 9.63 µM, the GI50 [45] was 1.69 µM and the TGI [45] was 3.24 µM. The GI50 [46] was 9.59 µM, the TGI [46] was 21.5 µM and the GI50 [47] was 1.63 µM. For the same molecule, the TGI [47] was 3.23 µM, the GI50 [48] was 2.24 µM and the TGI [48] was 5.52 µM. It also gave a GI50 [49] of 2.06 µM, a TGI [49] of 4.21 µM and a GI50 [50] of 1.54 µM. It also gave a TGI [50] of 10.4 µM, a GI50 [51] of 3.68 µM and a TGI [51] of 14.2 µM. It also gave a GI50 [52] of 3.39 µM, a TGI [52] of 12.2 µM and a GI50 [53] of 1.65 µM. The TGI [53] was 3.16 µM, the GI50 [54] was 1.64 µM and the TGI [54] was 3.14 µM. It also gave a GI50 [55] of 16.6 µM, a TGI [55] of 32.3 µM and a GI50 [56] of 10.8 µM. It also gave a TGI [56] of 32.4 µM, a GI50 [57] of 2.03 µM and a TGI [57] of 4.59 µM.

From PubChem BioAssay (NCI)
